Legend:
Test in all cases: Fluo-3 calcium mobilization, FLIPR, […]1 cells
Format in all cases: cell-based
human P2Y6 receptor = human P2Y6 receptor (Homo sapiens, UniProt Q15077)
human P2Y4 receptor = human P2Y4 receptor (Homo sapiens, UniProt P51582)
human P2Y1 receptor = human P2Y1 receptor (Homo sapiens, UniProt P47900)
human P2Y2 receptor = human P2Y2 receptor (Homo sapiens, UniProt P41231)
Sequence of human P2Y2 receptor (P41231 whole entry): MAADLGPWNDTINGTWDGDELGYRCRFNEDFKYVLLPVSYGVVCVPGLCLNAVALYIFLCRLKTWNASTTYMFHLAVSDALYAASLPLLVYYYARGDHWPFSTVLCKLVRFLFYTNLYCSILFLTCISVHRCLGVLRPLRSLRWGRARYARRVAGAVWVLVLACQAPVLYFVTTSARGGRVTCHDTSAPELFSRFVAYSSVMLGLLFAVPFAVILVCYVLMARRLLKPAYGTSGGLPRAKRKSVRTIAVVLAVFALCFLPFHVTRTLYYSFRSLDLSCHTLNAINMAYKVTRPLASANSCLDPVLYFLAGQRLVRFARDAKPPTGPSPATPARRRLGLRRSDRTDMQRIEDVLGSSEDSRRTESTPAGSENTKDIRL

Sequence of human P2Y4 receptor (P51582 whole entry): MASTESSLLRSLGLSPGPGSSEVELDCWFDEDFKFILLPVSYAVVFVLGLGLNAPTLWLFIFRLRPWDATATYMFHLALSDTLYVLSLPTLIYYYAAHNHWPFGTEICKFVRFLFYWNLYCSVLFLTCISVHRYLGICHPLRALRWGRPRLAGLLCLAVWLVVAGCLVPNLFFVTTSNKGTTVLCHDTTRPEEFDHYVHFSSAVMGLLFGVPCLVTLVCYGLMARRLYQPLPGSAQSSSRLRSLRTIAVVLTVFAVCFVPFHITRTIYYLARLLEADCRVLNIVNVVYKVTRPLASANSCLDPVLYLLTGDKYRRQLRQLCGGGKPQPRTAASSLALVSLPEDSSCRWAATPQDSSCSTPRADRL
Sequence of human P2Y6 receptor (Q15077 whole entry): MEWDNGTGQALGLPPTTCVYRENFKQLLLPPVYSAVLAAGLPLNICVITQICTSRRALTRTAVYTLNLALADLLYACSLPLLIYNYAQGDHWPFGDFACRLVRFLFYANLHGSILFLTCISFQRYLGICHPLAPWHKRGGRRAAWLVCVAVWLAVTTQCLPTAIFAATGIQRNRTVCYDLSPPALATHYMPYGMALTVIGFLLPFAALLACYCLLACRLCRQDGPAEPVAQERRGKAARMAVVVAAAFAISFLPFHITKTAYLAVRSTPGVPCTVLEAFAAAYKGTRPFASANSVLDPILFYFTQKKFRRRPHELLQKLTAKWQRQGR
Sequence of human P2Y1 receptor (P47900 whole entry): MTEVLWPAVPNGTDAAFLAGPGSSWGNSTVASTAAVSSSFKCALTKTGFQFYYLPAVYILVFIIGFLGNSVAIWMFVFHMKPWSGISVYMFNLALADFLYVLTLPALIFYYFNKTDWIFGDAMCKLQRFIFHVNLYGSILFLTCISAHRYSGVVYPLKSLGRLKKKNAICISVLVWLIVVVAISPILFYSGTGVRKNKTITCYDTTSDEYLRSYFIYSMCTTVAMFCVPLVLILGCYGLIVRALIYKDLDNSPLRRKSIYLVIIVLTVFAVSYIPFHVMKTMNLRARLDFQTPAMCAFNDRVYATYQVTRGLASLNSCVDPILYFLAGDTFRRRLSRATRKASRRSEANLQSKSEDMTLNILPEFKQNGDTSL

| EC50 (human P2Y6 receptor) [nM] | EC50 (human P2Y4 receptor) [nM] | EC50 (human P2Y1 receptor) [nM] | EC50 (human P2Y2 receptor) [nM] | SMILES |
| --- | --- | --- | --- | --- |
| 1530 | 520 | 120 | 230 | Nc1nc2c(ncn2[C@@H]2O[C@H](COP(=O)(O)OP(=O)(O)OP(=O)(O)OC[C@H]3O[C@@H](n4cnc5c(N)ncnc54)[C@H](O)[C@@H]3O)[C@@H](O)[C@H]2O)c(=O)[nH]1 [compound 28, AP3G] |
| 1060 | 2550 | 110 | 1200 | Nc1ncnc2c1ncn2[C@@H]1O[C@H](COP(=O)(O)OP(=O)(O)OP(=O)(O)OC[C@H]2O[C@@H](n3cnc4c(=O)[nH]cnc43)[C@H](O)[C@@H]2O)[C@@H](O)[C@H]1O [compound 29, AP3I] |
| 810 | 40000 | 17000 | 3100 | Nc1ccn([C@@H]2O[C@H](COP(=O)(O)OP(=O)(O)OP(=O)(O)OC[C@H]3O[C@@H](n4ccc(=O)[nH]c4=O)C[C@@H]3O)[C@@H](O)[C@H]2O)c(=O)n1 [compound 36, CP3dU] |
| 3320 | 220 | 6130 | 590 | Nc1ccn([C@@H]2O[C@H](COP(=O)(O)OP(=O)(O)OP(=O)(O)OP(=O)(O)OC[C@H]3O[C@@H](n4ccc(=O)[nH]c4=O)[C@H](O)[C@@H]3O)[C@@H](O)[C@@H]2O)c(=O)n1 [compound 50, UP4araC] |
| 4200 | 70 | 3490 | 50 | Nc1ncnc2c1ncn2[C@H]1C[C@H](O)[C@@H](COP(=O)(O)OP(=O)(O)OP(=O)(O)OP(=O)(O)OC[C@H]2O[C@@H](n3ccc(=O)[nH]c3=O)[C@H](O)[C@@H]2O)O1 [compound 52, UP4dA] |
